Test results taken from ChEMBL document CHEMBL6182918, “Developing Dual-State Emission Berberine Derivatives as Theranostic Agents by Reducing Nonradiative Transition Pathways” (J Med Chem, 2025).
Calls of active or inactive are those of the source. The calls are words filed in the database; no cut-off is given here.

What was measured:
Staphylococcus aureus [1] = assay: Photodynamic antibacterial activity against Staphylococcus aureus ATCC 25923 assessed as log reduction in colony forming units at 50 ug/ml preincubated for 5 mins in PBS followed by light irradiation for 20 mins and later cultured on LB agar plate for 18 hrs by plate-count method; assay type: functional; details: dose 50 µg/ml; time 1105 min; 18.42 h
[2] = Stability of the compound in the solution assessed as fluorescence intensity measured after 28 mins of light exposure by fluorescence based analysis; assay type: physicochemical; details: read-out: Stability
Staphylococcus aureus [3] = assay: Antibacterial activity against Staphylococcus aureus infected in mouse assessed as reduction in pyosis in wounds at 50 ug/ml measured on day 1; assay type: functional, organism-based; details: dose 50.0 µg/ml, time 1.0 day
Staphylococcus aureus [4] = assay: (§1) Photodynamic antibacterial activity against Staphylococcus aureus infected in mouse assessed as reduction in pyosis in wounds at 50 ug/ml pretreated with compound followed by LED light irradiation for 30 mins and measured on day 1; assay type: functional, organism-based; details: dose 50.0 µg/ml, time 1.0 day
Staphylococcus aureus [5] = assay: as §1, with “bacterial count” for “pyosis”, “and” for “and measured”, “5 the infected tissue harvested and cultured on LB agar plate and measured after 24 hrs by plate count method” for “1”; assay type: functional, organism-based; details: dose 50.0 µg/ml, time 6.0 day
Staphylococcus aureus [6] = assay: Photodynamic antibacterial activity against Staphylococcus aureus infected in mouse assessed as reduction in neutrophils content in wounds at 50 ug/ml and measured on day 3 by Hematoxylin-Eosin staining based analysis; assay type: functional, organism-based; details: dose 50.0 µg/ml, time 3.0 day
[7] = Aqueous solubility of the compound relative to berberine; assay type: physicochemical; details: buffer
[8] = Induction of ROS generation in aqueous solution assessed as singlet oxygen generation (1O2) at 10 ug/ml pretreated with compound followed by light irradiation for 28 mins by fluorescence based analysis; assay type: functional; details: dose 10.0 µg/ml
[9] = Induction of ROS generation in aqueous solution assessed as hydroxyl radical generation (.OH) at 10 ug/ml pretreated with compound followed by light irradiation for 28 mins by fluorescence based analysis; assay type: functional; details: dose 10.0 µg/ml
Staphylococcus aureus [10] = assay: Antibacterial activity against Staphylococcus aureus assessed as inhibition of bacterial growth by CLSI based broth microdilution method; assay type: functional
Escherichia coli [11] = assay: Antibacterial activity against Escherichia coli assessed as inhibition of bacterial growth by CLSI based broth microdilution method; assay type: functional, organism-based
Staphylococcus aureus [12] = assay: Antibacterial activity against Staphylococcus aureus ATCC 25923 assessed as reduction in colony forming units at 50 ug/ml preincubated for 5 to 20 mins in PBS followed by culturing on LB agar plate for 18 hrs by plate-count method; assay type: functional, organism-based; details: dose 50.0 µg/ml, time 1085-1100 min
Staphylococcus aureus [13] = assay: Photodynamic antibacterial activity against Staphylococcus aureus ATCC 25923 assessed as reduction in colony forming units at 50 ug/ml preincubated for 5 mins in PBS followed by light irradiation for 5 to 20 mins and later cultured on LB agar plate for 18 hrs by plate-count method; assay type: functional, organism-based; details: dose 50.0 µg/ml, time 1090-1105 min
Escherichia coli [14] = assay: Photodynamic antibacterial activity against Escherichia coli EHEC assessed as reduction in colony forming units at 50 ug/ml preincubated for 5 mins in PBS followed by light irradiation for 20 mins and later cultured on LB agar plate for 18 hrs by plate-count method; assay type: functional, organism-based; details: dose 50.0 µg/ml, time 1105.0 min
Staphylococcus aureus [15] = assay: Photodynamic antibacterial activity against Staphylococcus aureus ATCC 29213 assessed as reduction in colony forming units at 50 ug/ml preincubated for 5 mins in PBS followed by light irradiation for 20 mins and later cultured on LB agar plate for 18 hrs by plate-count method; assay type: functional, organism-based; details: dose 50.0 µg/ml, time 1105.0 min
Staphylococcus aureus [16] = assay: Photodynamic antibacterial activity against Staphylococcus aureus ATCC 43300 assessed as reduction in colony forming units at 50 ug/ml preincubated for 5 mins in PBS followed by light irradiation for 20 mins and later cultured on LB agar plate for 18 hrs by plate-count method; assay type: functional, organism-based; details: dose 50.0 µg/ml, time 1105.0 min
Staphylococcus aureus [17] = assay: Photodynamic antibacterial activity against Staphylococcus aureus ATCC 700699 assessed as reduction in colony forming units at 50 ug/ml preincubated for 5 mins in PBS followed by light irradiation for 20 mins and later cultured on LB agar plate for 18 hrs by plate-count method; assay type: functional, organism-based; details: dose 50.0 µg/ml, time 1105.0 min
Escherichia coli [18] = assay: Photodynamic antibacterial activity against Escherichia coli EPEC assessed as reduction in colony forming units at 50 ug/ml preincubated for 5 mins in PBS followed by light irradiation for 20 mins and later cultured on LB agar plate for 18 hrs by plate-count method; assay type: functional, organism-based; details: dose 50.0 µg/ml, time 1105.0 min
Staphylococcus aureus [19] = assay: Photodynamic antibacterial activity against Staphylococcus aureus ATCC 25923 assessed as reduction in colony forming units at 50 to 100 ug/ml preincubated for 5 mins in PBS followed by light irradiation for 20 mins and later cultured on LB agar plate for 18 hrs by plate-count method; assay type: functional, organism-based; details: dose 50-100 µg/ml, time 1105.0 min
Staphylococcus aureus [20] = assay: Photodynamic antibacterial activity against Staphylococcus aureus ATCC 29213 assessed as reduction in colony forming units at 50 to 100 ug/ml preincubated for 5 mins in PBS followed by light irradiation for 20 mins and later cultured on LB agar plate for 18 hrs by plate-count method; assay type: functional, organism-based; details: dose 50-100 µg/ml, time 1105.0 min
Staphylococcus aureus [21] = assay: Photodynamic antibacterial activity against Staphylococcus aureus ATCC 43300 assessed as reduction in colony forming units at 50 to 100 ug/ml preincubated for 5 mins in PBS followed by light irradiation for 20 mins and later cultured on LB agar plate for 18 hrs by plate-count method; assay type: functional, organism-based; details: dose 50-100 µg/ml, time 1105.0 min
Staphylococcus aureus [22] = assay: Photodynamic antibacterial activity against Staphylococcus aureus ATCC 700699 assessed as reduction in colony forming units at 50 to 100 ug/ml preincubated for 5 mins in PBS followed by light irradiation for 20 mins and later cultured on LB agar plate for 18 hrs by plate-count method; assay type: functional, organism-based; details: dose 50-100 µg/ml, time 1105.0 min
[23] = Drug uptake in Staphylococcus aureus assessed as increase in bacterial imaging at 10 ug/ml by laser scanning confocal microscopic analysis; assay type: ADME; details: dose 10 µg/ml
[24] = Drug uptake in Escherichia coli assessed as increase in bacterial imaging at 10 ug/ml by laser scanning confocal microscopic analysis; assay type: ADME; details: dose 10 µg/ml
Staphylococcus aureus [25] = assay: Antibacterial activity against Staphylococcus aureus ATCC 25923 assessed as viable cells with tiny amount of PI emission at 10 ug/ml measured under dark conditions by PI co-staining based fluorescence analysis; assay type: functional, organism-based; details: dose 10.0 µg/ml
Staphylococcus aureus [26] = assay: Photodynamic antibacterial activity against Staphylococcus aureus ATCC 25923 assessed as reduction in bacterial cell viability by measuring increase in PI-stained cells at 10 ug/ml preincubated for 5 mins in PBS followed by light irradiation for 20 mins by PI co-staining based fluorescence analysis; assay type: functional, organism-based; details: dose 10.0 µg/ml, time 25.0 min
DNA [27] = assay: Binding affinity to Staphylococcus aureus DNA assessed as change in absorbance spectrum by absorbance based analysis; assay type: nucleic-acid assay
DNA [28] = assay: Binding affinity to Staphylococcus aureus DNA assessed as induction of genomic DNA degradation measured after 20 mins of light irradiation by absorbance based analysis; assay type: nucleic-acid assay; details: dose 12.5-100 µg/ml
Cell membrane [29] = assay: Disruption of inner cell membrane in Staphylococcus aureus assessed as increase in cell permeability by measuring increase in PI fluorescence intensity at 12.5 to 50 ug/ml measured after light irradiation by PI based fluorescence based analysis; assay type: subcellular; details: dose 12.5-50 µg/ml
Cell membrane [30] = assay: Disruption of cell membrane in Staphylococcus aureus assessed as increase in membrane depolarization by measuring increase in fluorescence intensity measured after light irradiation by DiBAC4(3) based fluorescence analysis; assay type: subcellular; details: dose 25-100 µg/ml
Cell membrane [31] = assay: Binding affinity to cell membrane in Staphylococcus aureus assessed as membrane potential collapse at 25 to 100 ug/ml by measuring increase in fluorescence intensity measured under dark conditions by Rhodamine123 staining based fluorescence analysis; assay type: subcellular; details: dose 25-100 µg/ml
Cell membrane [32] = assay: Binding affinity to cell membrane in Staphylococcus aureus assessed as membrane potential collapse at 25 to 50 ug/ml by measuring increase in fluorescence intensity measured after light irradiation by Rhodamine123 staining based fluorescence analysis; assay type: subcellular; details: dose 25-50 µg/ml
Staphylococcus aureus [33] = assay: Photodynamic bactericidal activity against Staphylococcus aureus assessed as appearance of broken and shrunk bacterial cells at 50 ug/ml pretreated for 5 mins followed by light irradiation for 20 mins SEM analysis; assay type: functional, organism-based; details: dose 50.0 µg/ml, time 25.0 min
[34] = Drug uptake in Staphylococcus aureus ATCC 25923 measured after washing by absorbance based analysis; assay type: ADME
[35] = Drug uptake in Staphylococcus aureus ATCC 43300 measured after washing by absorbance based analysis; assay type: ADME
[36] = Drug uptake in Escherichia coli EHEC measured after washing by absorbance based analysis; assay type: ADME
Staphylococcus aureus [37] = assay: Photodynamic antibacterial activity against Staphylococcus aureus infected in mouse assessed as reduction in pyosis in wounds at 50 ug/ml pretreated with compound followed by LED light irradiation for 30 mins and measured on day 3; assay type: functional, organism-based; details: dose 50.0 µg/ml, time 3.0 day
Staphylococcus aureus [38] = assay: Photodynamic antibacterial activity against Staphylococcus aureus infected in mouse assessed as reduction in pyosis in wounds at 50 ug/ml pretreated with compound followed by LED light irradiation for 30 mins and measured on day 5; assay type: functional, organism-based; details: dose 50.0 µg/ml, time 5.0 day
Staphylococcus aureus [39] = assay: Antibacterial activity against Staphylococcus aureus ATCC 29213 assessed as inhibition of bacterial growth by CLSI based broth microdilution method; assay type: functional, organism-based

## COc1ccc2cc3[n+](cc2c1OC)CCc1cc2c(cc1-3)OCO2.[Cl-] [BERBERINE CHLORIDE]
Staphylococcus aureus [1]
  Activity: 2 log10CFU/ml
[2]
  remaining at 28 min: 60%
Staphylococcus aureus [3]
  Activity: inactive
Staphylococcus aureus [4]
  Activity: inactive
Staphylococcus aureus [5]
  Activity: Active
Staphylococcus aureus [6]
  Activity: inactive

## COc1ccc2c(c1)CC[n+]1cc3cc(OC)ccc3cc1-2.[Cl-]
Staphylococcus aureus [1]
  Activity: 4.5 log10CFU/ml
[7]
  fold change (FC): ~ 10
[8]
  Activity: Active
[9]
  Activity: Active
Staphylococcus aureus [10]
  Activity: Active
Escherichia coli [11]
  Activity: Active; Activity Against Escherichia Coli Is Lower Than Staphylococcus Aureus
Staphylococcus aureus [12]
  Activity: inactive
Staphylococcus aureus [13]
  Activity: Time-dependent-effect
Escherichia coli [14]
  Activity: inactive

## COc1ccc2c(c1)CC[n+]1cc3ccccc3cc1-2
[8]
  Activity: inactive
[9]
  Activity: inactive

## CCCCN1C(=O)C(=C/C=C/C2C(=O)N(CCCC)C(=O)N(CCCC)C2=O)C(=O)N(CCCC)C1=O
[2]
  remaining at 28 min: 40%

## COc1ccc2c(c1)CC[n+]1cc3c(OC)cccc3cc1-2.[Cl-]
Staphylococcus aureus [1]
  Activity: ~5 log10CFU/ml
[7]
  fold change (FC): ~ 10
[8]
  Activity: Active
[9]
  Activity: Active
Staphylococcus aureus [10]
  MIC: 50 µg/mL
Escherichia coli [11]
  Activity: Active; Activity Against Escherichia Coli Is Lower Than Staphylococcus Aureus
Staphylococcus aureus [12]
  Activity: inactive
Staphylococcus aureus [13]
  Activity: Time-dependent-effect
Staphylococcus aureus [15]
  Activity: Active; Higher Activity Compared To Bbr And Mb But Lower Activity Compared To Ce6
Staphylococcus aureus [16]
  Activity: Active; Higher Activity Compared To Bbr And Mb But Lower Activity Compared To Ce6
Staphylococcus aureus [17]
  Activity: Active; Higher Activity Compared To Bbr And Mb But Lower Activity Compared To Ce6
Escherichia coli [18]
  Activity: Active
Escherichia coli [14]
  Activity: inactive
Staphylococcus aureus [19]
  Activity: Dose-dependent-effect
Staphylococcus aureus [20]
  Activity: Dose-dependent-effect
Staphylococcus aureus [21]
  Activity: Dose-dependent-effect
Staphylococcus aureus [22]
  Activity: Dose-dependent-effect
[23]
  Drug uptake: Active
[24]
  Drug uptake: Active
Staphylococcus aureus [25]
  Activity: inactive
Staphylococcus aureus [26]
  Activity: Active
[2]
  remaining at 28 min: ~90%
DNA [27]
  Activity: Active
DNA [28]
  Activity: Dose-dependent-effect
Cell membrane [29]
  Activity: Dose-dependent-effect
Cell membrane [30]
  Activity: Dose-dependent-effect
Cell membrane [31]
  Activity: Active
Cell membrane [32]
  Activity: Active
Staphylococcus aureus [33]
  Activity: Active
[34]
  Drug uptake: Active
[35]
  Drug uptake: Not_active
[36]
  Drug uptake: Not_active
Staphylococcus aureus [4]
  Activity: Active
Staphylococcus aureus [37]
  Activity: Active; Pyosis Nearly Disappeared
Staphylococcus aureus [38]
  Activity: Active; Favourable Wound Healing Status Observed
Staphylococcus aureus [5]
  Activity: Active

## COc1ccc2c(c1)CC[n+]1cc3cc4c(cc3cc1-2)OCO4
[8]
  Activity: Active
[9]
  Activity: Active

## COc1ccc2c(c1)CC[n+]1cc3c4c(ccc3cc1-2)OCO4
[8]
  Activity: inactive
[9]
  Activity: inactive

## COc1cccc2cc3[n+](cc12)CCc1cc2c(cc1-3)OCO2.[Cl-]
Staphylococcus aureus [1]
  Activity: 4 log10CFU/ml
Staphylococcus aureus [39]
  Activity: Active
Staphylococcus aureus [12]
  Activity: inactive
